Common to all, as to test: DTP human tumour cell line panel, 48 h
Assay [1] relates to UACC-257 melanoma.
For assay [2], the system named is CCRF-CEM leukemia.
Assay [3] relates to OVCAR-3 ovarian.
The subject of assay [4] is HOP-62 NSCLC.
Assay [5] has as its system SK-OV-3 ovarian.
The subject of assay [6] is A549 NSCLC.
For assay [7], the system named is SNB-19 CNS.
In assay [8] the test system is HCT-116 colon.
Assay [9] deals with OVCAR-4 ovarian.
The test system of assay [10] is HT29 colon.

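Test compounds were applied to cells in 96-well plates for 48 hours at 5 doses. At the GI50, growth is halved. At the TGI there is no net growth.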 Some results are limits rather than exact numbers.

The term TGI denotes the concentration at which net growth stops. Read a low TGI as greater sensitivity of the cells. As for `CS[C@]12C(=O)C[C@@]3(C)[C@@H](CC[C@]3(O)C(=O)CO)[C@@H]1CCC1=CC(=O)CC[C@@]12C`, the TGI in assay [1], in [2], in assay [3], in assay [4], in assay [5] and in [6] was more than 100 µM throughout. Moreover, the TGI in [7], in [8], in assay [9] and in assay [10] was more than 100 µM each time.
As a reminder, the GI50 is the concentration giving 50% growth inhibition. For the molecule `COc1ccc(C2SC(C)C(=O)N2NC(=O)C(O)c2ccccc2)cc1OC` (stereo not given), the GI50 in [1], in [2], in assay [3], in [4], in assay [5] and in assay [6] was more than 100 µM in each case. Further, the GI50 in assay [7], in assay [8], in assay [9] and in [10] was more than 100 µM each time. The TGI in [1], in assay [2], in [3], in assay [4], in assay [5] and in assay [6] was more than 100 µM each time. The TGI in [7], in [8], in assay [9] and in assay [10] was more than 100 µM in each case.
Regarding `C[Si](C)(C)c1ccc(-c2sc(-c3ccc([Si](C)(C)C)s3)c3c2C[Si]2(C3)Cc3c(-c4ccc([Si](C)(C)C)s4)sc(-c4ccc([Si](C)(C)C)s4)c3C2)s1`, the TGI in [1], in [2], in assay [3], in assay [4], in [5] and in [6] was more than 100 µM in each case. The concentration for total growth inhibition (TGI) in [7], in assay [8], in [9] and in assay [10] was more than 100 µM each time.
For `C/C=C(\C)C(=O)O[C@H]1C=CC(=O)O[C@@H]1CC[C@H](O)[C@H](C)O`, the GI50 in assay [1] is 80.9 µM; in assay [2], 21.3 µM; in assay [3], 36.5 µM; in [4] it was more than 100 µM; in assay [5] it was more than 100 µM; in assay [6], more than 75.1 µM. The GI50 is 98.9 µM in assay [7], 21.4 µM in [8], 41.6 µM in [9] and 30.6 µM in [10]. Also, the TGI in assay [1] is more than 100 µM; in assay [2], 66.2 µM; in assay [3], more than 100 µM; in assay [4] it was more than 100 µM; in [5], more than 100 µM; in assay [6], more than 100 µM. Also, the TGI in assay [7] is more than 100 µM; in assay [8] it was 67.2 µM; in [9], 97.5 µM; in [10] it was 97.5 µM.
For the molecule `CCOC(=O)NC(=O)c1cn(CCCCCCOC(=O)NCCCCCCNC(=O)OCCCCCCn2cc(C(=O)NC(=O)OCC)c(=O)[nH]c2=O)c(=O)[nH]c1=O`, the concentration for total growth inhibition (TGI) in [1], in [2], in assay [3], in [4], in [5] and in assay [6] was more than 100 µM throughout. The concentration for total growth inhibition (TGI) in assay [7], in assay [8], in assay [9] and in assay [10] was more than 100 µM throughout.
For `O=C(c1ccccc1)c1cccc(C(=O)c2ccccc2)c1`, the TGI in [1], in assay [2], in [3], in assay [4], in assay [5] and in assay [6] was more than 100 µM throughout. In addition, the total growth inhibition concentration (TGI) in assay [7], in [8], in assay [9] and in [10] was more than 100 µM throughout.
With `CC1(C)[C@@H](OC(N)=O)[C@H]2O[C@H]2[C@]2(CO)[C@H]3CC[C@]4(C)[C@@H](c5ccc(=O)oc5)[C@@H](Cl)C[C@]4(O)C3=CC[C@@H]12`, the GI50 was 0.012 µM in assay [1]; 0.00768 µM in assay [2]; 0.00618 µM in [3]; 0.00432 µM in [4]; 0.00661 µM in assay [5]; 0.00469 µM in assay [6]. In addition, the GI50 in [7] is 0.0161 µM; in assay [8], 0.00709 µM; in assay [9] it was 0.00545 µM; in [10], 0.00796 µM. The TGI in assay [1] amounted to 0.045 µM; in assay [2], 0.0264 µM; in assay [3] it was 0.014 µM; in assay [4] it was 0.00847 µM; in assay [5] it was 0.018 µM; in assay [6] it was 0.0088 µM. Also, the TGI in assay [7] amounted to 0.0509 µM; in assay [8], 0.0262 µM; in assay [9] it was 0.0157 µM; in assay [10], 0.0238 µM.
As for `CC#CC(=O)SCCNC(=O)CC`, the TGI in [1] was more than 10 µM; in assay [2], more than 8.72 µM; in assay [3] it was more than 10 µM; in assay [4], more than 10 µM; in assay [5], more than 10 µM; in assay [6], more than 10 µM. Moreover, the TGI in assay [7], in assay [8], in assay [9] and in assay [10] was more than 10 µM throughout.
Consider `COc1cc(C2C(Cl)C(=O)N2NC(=O)c2ccc(N)cc2)ccc1O` (stereo not given), for which the TGI in assay [1] was more than 100 µM; in [2], 47.3 µM; in assay [3] it was 39 µM; in assay [4] it was more than 100 µM; in assay [5] it was more than 100 µM; in assay [6], more than 100 µM. The TGI in assay [7] is 78.9 µM; in assay [8] it was 47.9 µM; in [9] it was more than 100 µM; in [10], 45.8 µM.
